# Columns and labels:
# HeLa MKYP cells [1] = assay: Human mitophagy assay (HeLa mKeima assay, FACS); assay type: cell-based; conditions: Homo sapiens, HeLa; read-out: Mitophagy induction EC50
# Procedure: Briefly, HeLa MKYP cells were plated at 10,000 cells/well in 96 well plates along with compounds at various concentrations. Following 16 hrs of incubation, cells were treated with 1 uM FCCP/oligomycin for 6 hours, then analyzed via FACS for the presence of mitochondria in lysosomes (as determined by an emissions spectrum shift from the pH-sensitive mtKeima tag).
# Briefly, HeLa cells expressing a mitophagy indicator (mtKeima) protein were treated with […] of FCCP and Oligomycin followed by the specified dose of compound, then analyzed by FACS to quantify the percentage of cells undergoing mitophagy.
# HeLa MKYP cells [2] = assay: Cell death measured by DAPI staining, with 1 μM FCCP/oligomycin or no toxin (no FO); assay type: cell-based
# Procedure: EP-0035985, EP-0037821, EP-0038098, and EP-0038099 in the presence of 1 μM FCCP/oligomycin or with no toxin (no FO) for 6 hrs. H2O2 treatment was performed as a control for cell death as measured by DAPI staining.
# EP-0035985, EP-0038461, EP-0038463, and EP-0038503 in the presence of 1 μM FCCP/oligomycin or with no toxin (no FO) for 6.5 hrs. H2O2 treatment was performed as a control for cell death as measured by DAPI staining.
# EP-0035985, EP-0038504, EP-0038508, and EP-0038521 in the presence of 1 μM FCCP/oligomycin or with no toxin (no FO) for 6.5 hrs. H2O2 treatment was performed as a control for cell death as measured by DAPI staining.
# EP-0035985, EP-0038461, EP-0038463, EP-0038503, EP-0038504, EP-0038508, and EP-0038521 in the presence of 1 μM FCCP/oligomycin or with no toxin (no FO) for 6.5 hrs. H2O2 treatment was performed as a control for cell death as measured by DAPI staining.
SMILES,EC50 (HeLa MKYP cells [1]),Highest safe dose (cytotoxicity; no FO; safe means DAPI+ <20%) (HeLa MKYP cells [2]),Max % death with 1 μM FO (HeLa MKYP cells [2])
OC[C@@H]1CCCN1[C@H]1CCc2ccccc2[C@@H]1Nc1ncnc2[nH]c(C3CC3)cc12 [EP-0040085],> 25 µM,8.3 µM,38.1%
FC(F)(F)c1cc2c(N[C@H]3c4ccccc4CC[C@@H]3N3CCCOCC3)ncnc2[nH]1 [EP-0040139],3.66 µM,25.0 µM,8.5%
c1ccc2c(c1)OC[C@@H](N1CCOCC1)[C@H]2Nc1ncnc2[nH]c(C3CC3)cc12 [EP-0040140],8.71 µM,25.0 µM,11.1%
FC(F)(F)c1cc2c(N[C@@H]3c4ccccc4OC[C@H]3N3CCOCC3)ncnc2[nH]1 [EP-0040252],1.11 µM,25.0 µM,9.1%
Fc1ccc2c(c1)OC[C@H](N1CCOCC1)[C@H]2Nc1ncnc2[nH]c(C3CC3)cc12 [EP-0040500],0.99 µM,25.0 µM,8.6%
C[C@@]12COC[C@]1(C)CN(C1CCc3ccccc3C1Nc1ncnc3[nH]c(C(F)(F)F)cc13)C2 (stereo partly drawn) [EP-0040523],2.73 µM,25.0 µM,39.0%
C[C@@]12COC[C@]1(C)CN(C1COc3ccccc3C1Nc1ncnc3[nH]c(C(F)(F)F)cc13)C2 (stereo partly drawn) [EP-0040524],2.68 µM,25.0 µM,27.7%
C[C@@]12COC[C@]1(C)CN(C1CCc3ccccc3C1Nc1ncnc3[nH]c(C4CC4)cc13)C2 (stereo partly drawn) [EP-0040542],1.45 µM,25.0 µM,15.3%
FC(F)(F)c1cc2c(NC3c4ccccc4OCC3N3CCC4(CCOC4)CC3)ncnc2[nH]1 (stereo not drawn) [EP-0040545],> 25 µM,25.0 µM,3.7%
FC(F)(F)c1cc2c(N[C@H]3c4ccccc4CC[C@H]3C3CCOCC3)ncnc2[nH]1 [EP-0040557],> 25 µM,25.0 µM,2.7%
FC(F)(F)c1cc2c(N[C@@H]3c4ccccc4CC[C@@H]3C3CCOCC3)ncnc2[nH]1 [EP-0040558],> 25 µM,25.0 µM,3.0%
FC(F)(F)c1cc2c(N[C@H]3c4ccccc4OC[C@H]3C3CCOCC3)ncnc2[nH]1 [EP-0040586],> 25 µM,8.3 µM,16.9%
FC(F)(F)c1cc2c(NC3c4ccccc4CCC3N3CCC4(CCOC4)CC3)ncnc2[nH]1 (stereo not drawn) [EP-0040589],> 25 µM,25.0 µM,19.4%
c1ccc2c(c1)CC[C@@H](C1CCOCC1)[C@H]2Nc1ncnc2[nH]c(C3CC3)cc12 [EP-0040626],7.11 µM,25.0 µM,29.3%
c1ccc2c(c1)CC[C@H](C1CCOCC1)[C@@H]2Nc1ncnc2[nH]c(C3CC3)cc12 [EP-0040627],24.4 µM,25.0 µM,4.8%
[O-][S+]1CCN(C2CCc3ccccc3C2Nc2ncnc3[nH]c(C4CC4)cc23)CC1 (stereo not drawn) [EP-0040665],9.86 µM,25.0 µM,3.7%
Fc1ccc2c(c1)CC[C@@H](N1C[C@@H]3COC[C@H]3C1)[C@@H]2Nc1ncnc2[nH]c(C(F)(F)F)cc12 [EP-0040696],23.4 µM,25.0 µM,14.9%
c1ccc2c(c1)CC[C@@H](C1CCOCC1)[C@@H]2Nc1ncnc2[nH]c(C3CC3)cc12 [EP-0040727],2.85 µM,25.0 µM,7.7%

# Source: patent publication US20240018146A1, “COMPOSITIONS AND METHODS OF USING THE SAME FOR TREATMENT OF NEURODEGENERATIVE AND MITOCHONDRIAL DISEASE” (MITOKININ, INC., priority 2020, published 2024)
